# Patent US10456509B2, “Chlorhexidine gluconate compositions, resin systems and articles” (3M INNOVATIVE PROPERTIES COMPANY, priority 2012, dated 2019)
# Like-named read-outs stand apart in the source and are kept apart here.
# Assay: Solubility Screening of CHG in vehicles, Vacuum Method
# Protocol: Solubility Screening. Screening tests were conducted to determine the solubility of CHG in a wide variety of vehicles. Tests were conducted using the Vacuum Method and the Lyophilizing Method.
# Vacuum Method. […] The flask was put in a 60° C. oil bath and stirred with a magnetic stir bar. […] In those cases, after nearly all the water was removed, additional vehicle was added to bring the final weight to 50 grams. The resulting concentration of CHG and residual water were determined. Also, the final state of the solution was qualitatively evaluated to determine if the mixture was transparent and apparently homogenous, or clearly inhomogeneous.
# [1] = CHG 5 wt. % in vehicle, 23-50° C., Vacuum Method
# [2] = CHG 10 wt. % in vehicle, 23-50° C., Vacuum Method
# [3] = CHG 20 wt. % in vehicle, 23-50° C., Vacuum Method
# [4] = summary of Tables 1a-3b, Vacuum Method
Compound,Final State [2],Final State,also measured
CCOCCOCCO [Diethyleneglycol monoethyl ether],Inhomogeneous,,"Final State (CHG 2.5 wt. % in vehicle, 23-50° C., Vacuum Method): Homogeneous; Final State [1]: Inhomogeneous"
"OCCCCC(O)CO (stereo not drawn) [1,2,6-trihydroxyhexane]",Homogeneous,,
"OCC1(O)COC(O)(CO)CO1 (stereo not drawn) [1,3-dihydroxyacetone dimer]",Homogeneous,,
"OC1CCCC(O)C1 (stereo not drawn) [1,3-cyclohexanediol]",,,"Final State (CHG 6 wt. % in vehicle, 23° C., Vacuum Method): Inhomogeneous; Final State (CHG 6 wt. % in vehicle, 50° C., Vacuum Method): Homogeneous; Final State (CHG 10 wt. % in vehicle, 23° C., Vacuum Method): Inhomogeneous; Final State (CHG 10 wt. % in vehicle, 50° C., Vacuum Method): Homogeneous"
"CCCCCCCCO [Example 1-octanol, 1-octanol]",Inhomogeneous,,
CCCCCCCCCCCC(=O)OCC(O)CO (stereo not drawn) [Glyceryl monolaurate],,,"Final State (CHG 20 wt. % in vehicle, 75° C., Vacuum Method): Homogeneous"
CCCCOC(=O)[C@H](O)[C@@H](O)C(=O)OCCCC [Dibutyl-L-Tartrate],,Homogeneous,
OCC(O)CO [Glycerol],,Homogeneous,
CC(C)OC(=O)[C@H](O)[C@@H](O)C(=O)OC(C)C [Diisopropyl-L-Tartrate],Inhomogeneous,,
CCCCCCCC(=O)OCC(O)CO (stereo not drawn) [Glyceryl monocaprylate],,Homogeneous,
COCCOCCO [Diethyleneglycol monomethyl ether],Homogeneous,,
"CC(C)(O)CCO [3-methyl-1,3-butanediol]",Inhomogeneous,,"Final State (CHG 1 wt. % in vehicle, 23° C., Vacuum Method): Inhomogeneous; Final State (CHG 1 wt. % in vehicle, 50° C., Vacuum Method): Homogeneous; Final State (CHG 2.5 wt. % in vehicle, 23° C., Vacuum Method): Inhomogeneous; Final State (CHG 2.5 wt. % in vehicle, 50° C., Vacuum Method): Homogeneous; Final State [1]: Inhomogeneous"
"OCCCCO [1,4-butanediol]",,Homogeneous,CHG solubility in vehicle (trend): provides solubility
Dimer Diol,,Inhomogeneous,
CCCCOCCOCCO [Diethyleneglycol Monobutyl Ether],,Inhomogeneous,
Triglyceryl diisostearate,,Inhomogeneous,
CC(O)COC(C)COC(C)CO (stereo not drawn) [Tripropylene glycol],,Inhomogeneous,

Compound,Final State [2],Final State,also measured
CCCCCCCC/C=C\CCCCCCCC(=O)OCC(O)CO (stereo not drawn) [Glyceryl monooleate],,,Final State [3]: Homogeneous
"CCCCCCC(O)CO (stereo not drawn) [1,2-octanediol]",Homogeneous,,Final State [3]: Homogeneous
"OCCCCCCCCO [1,8-octanediol]",Inhomogeneous,,CHG solubility in vehicle (trend) [4]: too widely separated to impart good solubility
Decaglyceryl tristearate,,Homogeneous,
CCOC(=O)C(=O)OCC [Oxalic Acid Diethyl Ester],,Inhomogeneous,
Decaglyceryl pentaoleate,,Inhomogeneous,
"CC(O)CCC(C)O (stereo not drawn) [2,5-hexanediol]",Inhomogeneous,,CHG solubility in vehicle (trend) [4]: do not provide good solubility
CCCCC(CC)COCC(O)CO (stereo not drawn) [Ethylhexyl glycerin],,Homogeneous,
"OC1CCC(O)CC1 (stereo not drawn) [1,4-cyclohexanediol]",Inhomogeneous,,CHG solubility in vehicle (trend) [4]: do not provide good solubility
"CC(O)CO (stereo not drawn) [1,2-propanediol]",Homogeneous,,
CC(C)CCCCCCCCCCCCCCC(=O)OCC(O)CO (stereo not drawn) [Glyceryl monoisostearate],,,"Final State (CHG 10 wt. % in vehicle, 23-60° C., Vacuum Method): Homogeneous; Final State (CHG 16 wt. % in vehicle, 23-60° C., Vacuum Method): Homogeneous; Final State (CHG 20 wt. % in vehicle, 60° C., Vacuum Method): Homogeneous"
OCCOCCOCCO [Triethylene glycol],,Homogeneous,
Polyglycerol-2-Triisostearate,,Inhomogeneous,
Polyethyleneglycol Dimethyl Ether,,Inhomogeneous,
CC(C)OC(=O)[C@@H](O)[C@H](O)C(=O)OC(C)C [Diisopropyl-D-Tartrate],,Inhomogeneous,
CCOC(=O)[C@@H](O)[C@H](O)C(=O)OCC [Diethyl-D-Tartrate],Homogeneous,,
CCOC(=O)[C@H](O)[C@@H](O)C(=O)OCC [Diethyl-L-Tartrate],,Homogeneous,
